Laboratory results: patent US8404738B2 (Hoffmann-La Roche Inc., priority 2011, dated 2013)

Key:
recombinant human HDAC8 = biological target: T1, recombinant human HDAC8 (Homo sapiens, UniProt Q9BY41); assay: HDAC8 inhibition: recombinant HDAC8 fluorometric assay; format: biochemical; conditions: recombinant human HDAC8, substrate Ac-Arg-His-Lys-Lys(ε-acetyl)-AMC; read-out: HDAC8 IC50
T1 construct: made in house; host or cells: insect cells
T1 sequence (Q9BY41 1-377): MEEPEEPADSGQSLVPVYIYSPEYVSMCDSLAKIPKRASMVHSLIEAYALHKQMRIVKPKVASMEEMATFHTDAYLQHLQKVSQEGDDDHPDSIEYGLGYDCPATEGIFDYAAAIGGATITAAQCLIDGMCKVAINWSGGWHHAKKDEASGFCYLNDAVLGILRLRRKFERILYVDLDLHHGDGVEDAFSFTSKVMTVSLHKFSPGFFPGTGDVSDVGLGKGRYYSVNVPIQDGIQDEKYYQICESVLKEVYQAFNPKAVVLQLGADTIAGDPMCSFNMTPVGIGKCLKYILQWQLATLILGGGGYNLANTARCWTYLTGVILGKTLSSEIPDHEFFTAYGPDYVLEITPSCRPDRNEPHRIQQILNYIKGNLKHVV
In short: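 Recombinant human HDAC8 from insect cells was preincubated with compound for 15 min at rt, then given Ac-Arg-His-Lys-Lys(ε-acetyl)-AMC substrate for 30 min at rt. IC50 came from normalized percent inhibition with curve fitting.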

[1] = tested on: p21 promoter-luciferase construct; assay: p21 reporter gene induction (HeLa cells, p21 promoter-luciferase construct); conditions: for p21 RP3: relative gene level of p21 compared to MS275 at 3 μM; for p21 RP10: relative level of p21 compared to MS275 at 10 μM; for p21 RP30: relative level of p21 compared to MS275 at 30 μM;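 for all read-outs here: transfected HeLa cells exposed to compound for 15 h, luciferase luminescence read from lysates, p21 promoter lacks p53 site, proxy for cellular HDAC1/2/3 inhibition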
Procedure: As a surrogate for in-cell HDAC1/2/3 inhibition, p21 induction was used as a counterscreen to evaluate the selectivity of the compounds in the present invention toward HDAC6 or HDAC8.
The novel compounds of the present invention were tested for their ability to induce p21 gene expression using a reporter gene assay involving HeLa cells transfected with a p21 promoter-luciferase construct. The p21 promoter contained the Sp1/Sp3 binding site for HDAC but not the upstream p53 binding site. Briefly, the day before transfection, HeLa cells were seeded at 11,000 cells/well in a 96-well culture plate and incubated at 37° C. in 5% CO2 overnight. A transfection media was prepared prior to transfection according to the following procedure: (1) 5 μl serum-free DMEM, 0.15 μl Fugene 6 reagent, 40 ng p21-luc, 10 ng GFP were mixed gently and incubated at rt for 30 minutes; (2), then 98 μl DMEM (with 10% FBS, 1% penicillin and streptomycin) was added to the DNA: Fugene 6 reagent complex and mixed gently. For transfection, the medium was removed and replaced with 100 μl/well transfection media which was prepared according to the procedure above. After incubating the cells for 24 hours at 37° C. in 5% CO2, fresh media and test compounds were added to the wells and the cells further incubated for 15 hours at 37° C. in 5% CO2. Cells were lysed by adding 80 μl/well of a cell culture lysis reagent (Promega). 50 μl of each lysate was taken for GFP detection using an excitation wavelength of 486 nm and detection at 527 nm. 100 μl luciferase assay reagent (Promega) was then added to every 20 μl cell lysate for luminometer detection.

HDAC6 = biological target: T2, HDAC6 (Homo sapiens, UniProt Q9UBN7); assay: Tubulin acetylation cytoblot assay (A549 cells); format: cell-based; conditions: 17-18 h incubation, tubulin acetylation as marker of HDAC6 inhibition, read-out: Tub-Ac EC50
T2 construct: endogenous in cells; host or cells: A549 cells
T2 sequence (Q9UBN7 1-1215): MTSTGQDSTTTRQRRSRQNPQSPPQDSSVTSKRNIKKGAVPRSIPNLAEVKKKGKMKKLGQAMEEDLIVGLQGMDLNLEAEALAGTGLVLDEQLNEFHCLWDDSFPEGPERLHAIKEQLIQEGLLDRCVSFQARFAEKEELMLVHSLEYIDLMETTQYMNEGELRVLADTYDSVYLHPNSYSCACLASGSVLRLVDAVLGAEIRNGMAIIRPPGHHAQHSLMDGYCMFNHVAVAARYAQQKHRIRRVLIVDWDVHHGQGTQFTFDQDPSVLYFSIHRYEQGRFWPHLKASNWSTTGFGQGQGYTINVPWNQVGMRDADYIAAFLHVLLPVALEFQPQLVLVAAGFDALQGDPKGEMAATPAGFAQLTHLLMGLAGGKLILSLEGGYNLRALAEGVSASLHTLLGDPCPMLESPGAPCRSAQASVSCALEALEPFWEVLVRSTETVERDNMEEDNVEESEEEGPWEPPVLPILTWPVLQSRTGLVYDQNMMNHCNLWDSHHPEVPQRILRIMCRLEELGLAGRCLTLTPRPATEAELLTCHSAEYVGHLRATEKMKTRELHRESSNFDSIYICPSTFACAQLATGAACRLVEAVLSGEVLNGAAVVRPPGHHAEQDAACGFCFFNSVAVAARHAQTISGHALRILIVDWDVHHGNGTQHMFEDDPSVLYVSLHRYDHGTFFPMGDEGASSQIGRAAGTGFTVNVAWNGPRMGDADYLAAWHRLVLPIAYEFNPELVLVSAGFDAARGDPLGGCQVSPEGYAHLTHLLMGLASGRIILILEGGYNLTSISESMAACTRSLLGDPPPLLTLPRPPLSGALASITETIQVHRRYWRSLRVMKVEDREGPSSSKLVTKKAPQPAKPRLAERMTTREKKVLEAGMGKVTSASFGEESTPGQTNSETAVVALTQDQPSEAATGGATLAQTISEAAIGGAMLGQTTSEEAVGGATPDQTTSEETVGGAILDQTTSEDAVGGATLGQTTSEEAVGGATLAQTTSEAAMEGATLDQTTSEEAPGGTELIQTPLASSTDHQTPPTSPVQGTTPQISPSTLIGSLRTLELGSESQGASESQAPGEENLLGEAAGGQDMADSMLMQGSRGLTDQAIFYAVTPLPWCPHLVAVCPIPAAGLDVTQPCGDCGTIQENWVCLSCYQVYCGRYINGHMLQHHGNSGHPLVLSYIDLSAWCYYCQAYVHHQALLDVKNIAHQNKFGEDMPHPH
In short: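 Cells were exposed to compound for 17-18 h, then fixed with formaldehyde and permeabilized with cold MeOH. They were probed for 4 h at 4° C with anti-acetylated tubulin plus HRP anti-mouse IgG (each 1:750), and read by ECL luminescence. EC50 values came from curves normalized to top and bottom controls.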

Row | IC50 (recombinant human HDAC8) [nM] | EC50 (HDAC6) [nM] | SMILES | p21 RP3 [1] | p21 RP10 [1] | p21 RP30 [1]
1 | 890 | 3890 | O=C(NO)c1ccc(NC2CCN(c3ccc(F)cc3)C2=O)cc1 (stereo not drawn) [Example 4, 4-[1-(4-Fluoro-phenyl)-2-oxo-pyrrolidin-3-ylamino]-N-hydroxy-benzamide] | 0.43 | 0.31 | 0.48
2 | 860 | 4560 | O=C(NO)c1ccc(NC2CC(=O)N(Cc3ccccc3)C2)cc1 (stereo not drawn) [Example 75, 4-(1-Benzyl-5-oxo-pyrrolidin-3-ylamino)-N-hydroxy-benzamide] | 0.19 | 0.07 | 0.11
3 | 1110 | 2820 | O=C(NO)c1ccc(NC2CCN(C3(c4ccccc4)CCCCC3)C2=O)cc1 (stereo not drawn) [Example 56, N-Hydroxy-4-[2-oxo-1-(1-phenyl-cyclohexyl)-pyrrolidin-3-ylamino]-benzamide] | 0.37 | 0.07 | 0.14
4 | 1690 | 190 | CC1(Nc2ccc(C(=O)NO)cc2)C(=O)N(c2cccc(Cl)c2)c2ccc(F)cc21 (stereo not drawn) [Example 98, 4-[1-(3-Chloro-phenyl)-5-fluoro-3-methyl-2-oxo-2,3-dihydro-1H-indol-3-ylamino]-N-hydroxy-benzamide] | 2.13 | 3.06 | 0.00
5 | 910 | 1000 | CC1(Nc2ccc(C(=O)NO)cc2)CCN(c2cccc(F)c2)C1=O (stereo not drawn) [Example 58, 4-[1-(3-Fluoro-phenyl)-3-methyl-2-oxo-pyrrolidin-3-ylamino]-N-hydroxy-benzamide] | 0.50 | 0.13 | 0.07
6 | 320 | 10200 | CC1(Nc2ccc(C(=O)NO)cc2)CCN(C(C)(C)c2ccccc2)C1=O (stereo not drawn) [Example 64, N-Hydroxy-4-[3-methyl-1-(1-methyl-1-phenyl-ethyl)-2-oxo-pyrrolidin-3-ylamino]-benzamide] | 0.30 | 0.04 | 0.02
7 | 3210 | 2280 | O=C(NO)c1ccc(NC2CCN(c3cccc(Oc4ccccc4)c3)C2=O)cc1 (stereo not drawn) [Example 30, N-Hydroxy-4-[2-oxo-1-(3-phenoxy-phenyl)-pyrrolidin-3-ylamino]-benzamide] | 0.13 | 0.09 | 0.05
8 | 2230 | 8310 | O=C(NO)c1ccc(NC2CCN(c3cccc(C(F)(F)F)c3)C2=O)cc1 (stereo not drawn) [Example 11, N-Hydroxy-4-[2-oxo-1-(3-trifluoromethyl-phenyl)-pyrrolidin-3-ylamino]-benzamide] | 0.39 | 0.08 | 0.04
9 | 1400 | 320 | CC1(Nc2ccc(C(=O)NO)cc2)C(=O)N(c2cccc(Cl)c2)c2ccccc21 (stereo not drawn) [Example 96, 4-[1-(3-chloro-phenyl)-3-methyl-2-oxo-2,3-dihydro-1H-indol-3-ylamino)-N-hydroxy-benzamide] | 0.86 | 1.34 | 0.02
10 | 1620 | 4310 | N#Cc1cccc(N2CCC(Nc3ccc(C(=O)NO)cc3)C2=O)c1 (stereo not drawn) [Example 18, 4-[1-(3-Cyano-phenyl)-2-oxo-pyrrolidin-3-ylamino]-N-hydroxy-benzamide] | 0.61 | 0.02 | −0.01
11 | 570 | 13100 | O=C(NO)c1ccc(NC2CCN(c3cccc4cccnc34)C2=O)cc1 (stereo not drawn) [Example 39, N-Hydroxy-4-(2-oxo-1-quinolin-8-yl-pyrrolidin-3-ylamino)-benzamide] | 0.29 | 0.09 | 0.20
12 | 1280 | 5230 | CC1(Nc2ccc(C(=O)NO)cc2)C(=O)N(Cc2ccccc2)c2ccccc21 (stereo not drawn) [Example 91, 4-(1-Benzyl-3-methyl-2-oxo-2,3-dihydro-1H-indol-3-ylamino)-N-hydroxy-benzamide] | 2.06 | 2.66 | 0.84

Second part, the compound before the results:

Row | SMILES | IC50 (recombinant human HDAC8) [nM] | EC50 (HDAC6) [nM] | p21 RP3 [1] | p21 RP10 [1] | p21 RP30 [1]
13 | O=C(NO)c1ccc(NC2CCN(c3ccc4ccccc4c3)C2=O)cc1 (stereo not drawn) [Example 38, N-Hydroxy-4-(1-naphthalen-2-yl-2-oxo-pyrrolidin-3-ylamino)-benzamide] | 1500 | 1060 | 0.50 | 0.02 | −0.02
14 | N#Cc1ccc(N2CCC(Nc3ccc(C(=O)NO)cc3)C2=O)cc1 (stereo not drawn) [Example 19, 4-[1-(4-Cyano-phenyl)-2-oxo-pyrrolidin-3-ylamino]-N-hydroxy-benzamide] | 1050 | 3140 | 0.46 | 0.00 | −0.03
15 | CC1(Nc2ccc(C(=O)NO)cc2)CCN(c2ccccc2)C1=O (stereo not drawn) [Example 57, N-Hydroxy-4-(3-methyl-2-oxo-1-phenyl-pyrrolidin-3-ylamino)-benzamide] | 2970 | 2640 | 0.05 | 0.03 | 0.01
16 | O=C(NO)c1ccc(NC2CCN(c3ccccc3Cl)C2=O)cc1 (stereo not drawn) [Example 5, 4-[1-(2-Chloro-phenyl)-2-oxo-pyrrolidin-3-ylamino]-N-hydroxy-benzamide] | 370 | 6670 | −0.01 | 0.06 | 0.08
17 | O=C(NO)c1ccc(NC2CCN(c3cccc(Cl)c3)C2=O)cc1 (stereo not drawn) [Example 6, 4-[1-(3-Chloro-phenyl)-2-oxo-pyrrolidin-3-ylamino]-N-hydroxy-benzamide] | 720 | 2820 | 0.03 | 0.15 | 0.15
18 | O=C(NO)c1ccc(NC2CCN(c3cccc(Cl)c3)C2=O)cc1F (stereo not drawn) [Example 67, 4-[1-(3-Chloro-phenyl)-2-oxo-pyrrolidin-3-ylamino]-2-fluoro-N-hydroxy-benzamide] | 2120 | 6230 | 0.40 | 0.17 | 0.02
19 | O=C(NO)c1ccc(NC2CCN(Cc3ccccc3)C2=O)cc1 (stereo not drawn) [Example 42] | 650 | 11400 | 0.02 | 0.09 | 0.34
20 | CC(C)Oc1ccc(N2CCC(Nc3ccc(C(=O)NO)cc3)C2=O)cc1 (stereo not drawn) [Example 10, N-Hydroxy-4-[1-(4-isopropoxy-phenyl)-2-oxo-pyrrolidin-3-ylamino]-benzamide] | 1800 | 2150 | 0.07 | 0.05 | 0.05
21 | O=C(NO)c1ccc(NC2CCN(c3ccc(Cl)c(CO)c3)C2=O)cc1 (stereo not drawn) [Example 29, 4-[1-(4-Chloro-3-hydroxymethyl-phenyl)-2-oxo-pyrrolidin-3-ylamino]-N-hydroxy-benzamide] | 750 | 13800 | 0.55 | 0.10 | 0.12
